Test results published in patent US8178699B2, “Modulators of CCR9 receptor and methods of use thereof” (Pfizer Inc., priority 2008, dated 2012).
Counter-ions that a name gives are not always drawn.

biological target: T1, human CCR9 receptor (Homo sapiens, UniProt P51686); experiment: CCR9 FLIPR/FlexStation Assay (inhibition of TECK induced calcium mobilization); format: cell-based; details: CCR9 antagonist activity; TECK induced calcium mobilization in CCR9-Flp-CHO cells stably over expressing human CCR9; rhTECK at EC70; read-out: Binding IC50
T1 construct: expressed in transfected cells
T1 sequence (P51686 1-369): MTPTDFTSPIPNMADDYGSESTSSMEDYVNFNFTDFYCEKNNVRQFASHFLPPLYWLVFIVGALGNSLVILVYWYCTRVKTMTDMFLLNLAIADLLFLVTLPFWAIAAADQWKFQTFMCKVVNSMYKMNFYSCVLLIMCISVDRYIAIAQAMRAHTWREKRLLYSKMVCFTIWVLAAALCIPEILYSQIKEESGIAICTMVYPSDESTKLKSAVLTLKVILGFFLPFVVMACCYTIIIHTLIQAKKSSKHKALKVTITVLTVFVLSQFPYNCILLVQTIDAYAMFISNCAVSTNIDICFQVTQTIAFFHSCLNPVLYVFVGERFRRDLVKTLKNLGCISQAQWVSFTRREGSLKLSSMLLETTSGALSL
Description: Exemplary methods are described in US Publication Nos. US2004/0180892 and US2005/0049286, which are incorporated herein by reference. An exemplary assay for determining CCR9 antagonist activity of the compounds provided herein is CCR9 FLIPR/FlexStation Assay. In certain embodiments, the following protocol is used for the assay:
CCR9 FLIPR/FlexStation Assay Protocol
Calcium assay in FLIPR/FlexStation determines inhibitors of TECK induced calcium mobilization in CCR9-Flp-CHO cells that stably over express human CCR9 receptor. CCR9-Flp-CHO cells are seeded at 25,000 cells/well in a clear bottom, black wall 96-well plate (Greiner #655090) one day prior to assay. Cells are grown in a tissue culture incubator at 37° C. with 5% CO2 for 18 to 24 hours.
Wash buffer and dye loading buffer are prepared fresh each time the assay is performed. Wash buffer is prepared according to the following protocol: 20 ml 10×HBSS (Invitrogen Gibco #14065-056), 4 ml 1M HEPES (Sigma H3784), 174 ml sterile deionized water; then add 140 mg probenecid (Sigma P8761) dissolved in 2 ml 1M NaOH (Fisher S318) to solution and pH to 7.4. This wash buffer contains 1×HBSS, 20 mM HEPES and 2.5 mM probenecid. For one 96-well plate, dye loading buffer is prepared as following: 11 ml wash buffer, 44 μl Fluo-4/pluoronic acid mix (prepared from 22 μL aliquot of 2 mM Fluo-4 (Molecular Probes F14202, 1 mg/tube)+22 μl 20% pluronic F-127 (Molecular Probes P3000MP).
Cells are loaded with dye according to the protocol below:
1. Prepare wash buffer with 1×HBSS/HEPES at room temperature
2. Prepare loading buffer (keep in dark)
3. Aspirate culture media and wash with 100 μl wash buffer per well×1
4. Add 100 μl dye loading buffer to each well
5. Incubate at 37° C. for 30 minutes
6. Aspirate loading buffer
7. Wash with 100 μl wash buffer per well×3
8. Add 100 μl wash buffer per well
9. Incubate at 37° C. for 30 minutes
10. Assay plate with FLIPR or FlexStation
10 mM stock compounds in DMSO are prepared and diluted in DMSO to 1 mM. Compounds are diluted in wash buffer to make 8 point series dilutions containing same final concentration of DMSO (1%). Compounds are tested in duplicate wells for each point. Ligand rhTECK (R&D Systems 334-TK) was diluted to 6× of its EC70 with wash buffer. Appropriate amount of 6× ligand is added to each well. Data is analyzed using XLfit3 software to calculate IC50 value of antagonist activity for each compound.
CCR9 antagonist activity of exemplary compounds was determined using CCR9 FLIPR/FlexStation Assay as described in Section 4.4 and is provided in Table 1 below. The IC50 for the compounds are represented as follows: A≦100 nM; B>100-500 nM; C>500 nM.

SMILES	IC50 [nM]
CC(C)(C)c1ccc(S(=O)(=O)Nc2ccsc2C(=O)O)c(-c2ccc(Cl)cc2)c1 [Example 2, 3-(5-tert-butyl-4′-chlorobiphenyl-2-ylsulfonamido)thiophene-2-carboxylic acid, disodium salt]	> 500
CN(C)c1ccc(-c2cc(C(C)(C)C)ccc2S(=O)(=O)Nc2ccsc2C(=O)O)cc1 [Example 4, 3-[5-tert-butyl-4′-(dimethylamino)biphenyl-2-ylsulfonamido]thiophene-2-carboxylic acid, disodium salt]	> 500
CC(C)(C)c1ccc(S(=O)(=O)Nc2ccsc2C(=O)O)c(-c2cncnc2)c1 [Example 5, 3-[4-tert-butyl-2-(pyrimidin-5-yl)phenylsulfonamido]thiophene-2-carboxylic acid, disodium salt]	> 500
CC(=O)Oc1cc(C(C)(C)C)ccc1S(=O)(=O)Nc1ccsc1C(=O)O [Example 12, 3-(2-acetoxy-4-tert-butylphenylsulfonamido)thiophene-2-carboxylic acid, disodium salt]	100 to 500
CN(c1ccsc1C(=O)O)S(=O)(=O)c1ccc(C(C)(C)C)cc1 [Example 15, 3-(4-tert-butyl-N-methylphenylsulfonamido)thiophene-2-carboxylic acid, sodium salt]	> 500
O=C(O)c1sccc1NS(=O)(=O)c1ccc2ccccc2c1 [Example 17, 3-(Naphthalene-2-sulfonamido)thiophene-2-carboxylic acid, disodium salt]	> 500
O=C(O)c1sccc1NS(=O)(=O)c1ccc(Br)cc1 [Example 20, 3-(4-bromophenylsulfonamido)thiophene-2-carboxylic acid, disodium salt]	> 500
Cc1ccccc1-c1cccc(S(=O)(=O)Nc2ccsc2C(=O)O)c1 [Example 22, 3-(2′-methylbiphenyl-3-ylsulfonamido)thiophene-2-carboxylic acid, disodium salt]	> 500
O=C(O)c1sccc1NS(=O)(=O)c1ccc(N2CCOCC2)cc1 [Example 23, 3-[(4-morpholin-4-yl)phenylsulfonamido]thiophene-2-carboxylic acid, disodium salt]	> 500
CC(C)(C)c1ccc(S(=O)(=O)Nc2c(C(=O)O)sc3ccccc23)cc1 [Example 24, 3-(4-tert-butylphenylsulfonamido)benzo[b]thiophene-2-carboxylic acid, disodium salt]	100 to 500
CC(C)(C)c1ccc(S(=O)(=O)Nc2c(C(=O)O)sc3ccc(F)cc23)cc1 [Example 25, 3-(4-tert-butylphenylsulfonamido)-5-fluorobenzo[b]thiophene-2-carboxylic acid, disodium salt]	> 500
CC(C)(C)c1ccc(S(=O)(=O)Nc2c(C(=O)O)sc3ncccc23)cc1 [Example 26, 3-(4-tert-butylphenylsulfonamido)thieno[2,3-b]pyridine-2-carboxylic acid, disodium salt]	> 500
CC(C)(C)c1ccc(S(=O)(=O)Nc2ccsc2C(=O)O)c(Oc2ccccc2)c1 [Example 28, 3-(4-tert-butyl-2-phenoxyphenylsulfonamido)thiophene-2-carboxylic acid, disodium salt]	> 500
CC(C)(C)c1ccc(S(=O)(=O)Nc2ccsc2C(=O)O)c(/C=C/C(=O)O)c1 [Example 30, 3-[4-tert-butyl-2-(2-carboxyvinyl)phenylsulfonamido]thiophene-2-carboxylic acid, trisodium salt]	> 500
O=C(O)c1sccc1NS(=O)(=O)c1ccc(-n2cccn2)cc1 [Example 31, 3-[4-(1H-pyrazol-1-yl)phenylsulfonamido]thiophene-2-carboxylic acid, disodium salt]	> 500

Other lines, results leading:

IC50 [nM]	SMILES
≤ 100	CC(C)(C)c1ccc(S(=O)(=O)Nc2ccsc2C(=O)O)c(Br)c1 [Example 1, 3-(2-bromo-4-tert-butylphenylsulfonamido)thiophene-2-carboxylic acid, sodium salt]
100 to 500	CC(C)(C)c1ccc(S(=O)(=O)Nc2ccsc2C(=O)O)c(N2CCOCC2)c1 [Example 3, 3-[4-tert-butyl-2-(morpholin-4-yl)phenylsulfonamido]thiophene-2-carboxylic acid]
≤ 100	CC(C)(C)c1ccc(S(=O)(=O)Nc2ccsc2C(=O)O)c(Cl)c1 [Example 6, 3-(4-tert-Butyl-2-chlorophenylsulfonamido)thiophene-2-carboxylic acid, disodium salt]
100 to 500	CC(C)(C)c1ccc(S(=O)(=O)Nc2ccsc2C(=O)O)c(/C=C/c2ccccc2)c1 [Example 7, 3-(4-tert-butyl-2-styrylphenylsulfonamido)thiophene-2-carboxylic acid, disodium salt]
≤ 100	COc1cc(C(C)(C)C)ccc1S(=O)(=O)Nc1ccsc1C(=O)O [Example 8, 3-(tert-butyl-2-methoxyphenylsulfonamido)thiophene-2-carboxylic acid, disodium salt]
100 to 500	CC(C)(C)c1ccc(S(=O)(=O)Nc2ccsc2C(=O)O)c(O)c1 [Example 9, 3-(4-tert-butyl-2-hydroxyphenylsulfonamido)thiophene-2-carboxylic acid, trisodium salt]
≤ 100	CC(C)(C)c1ccc(S(=O)(=O)Nc2ccsc2C(=O)O)c(C#N)c1 [Example 10, 3-(4-tert-butyl-2-cyanophenylsulfonamido)thiophene-2-carboxylic acid, disodium salt]
≤ 100	CC(C)(C)c1ccc(S(=O)(=O)Nc2ccsc2C(=O)O)c(CCc2ccccc2)c1 [Example 11, 3-(4-tert-butyl-2-phenethylphenylsulfonamido)thiophene-2-carboxylic acid, disodium salt]
≤ 100	Cc1cc(C(C)(C)C)ccc1S(=O)(=O)Nc1ccsc1C(=O)O [Example 13, 3-(4-tert-butyl-2-methylphenylsulfonamido)thiophene-2-carboxylic acid, disodium salt]
≤ 100	CCC(C)c1ccc(S(=O)(=O)Nc2ccsc2C(=O)O)cc1 (stereo not shown) [Example 14, 3-(4-sec-butylphenylsulfonamido)thiophene-2-carboxylic acid, disodium salt]
≤ 100	CC(C)(C)c1ccc(S(=O)(=O)Nc2ccsc2C(=O)O)cc1 [Example 16, 3-(4-tert-butylphenylsulfonamido)thiophene-2-carboxylic acid, disodium salt]
100 to 500	CCC(C)(C)c1ccc(S(=O)(=O)Nc2ccsc2C(=O)O)cc1 [Example 18, 3-(4-(1,1-Dimethylpropyl)phenylsulfonamido)thiophene-2-carboxylic acid, sodium salt]
≤ 100	CCCCc1ccc(S(=O)(=O)Nc2ccsc2C(=O)O)c(Cl)c1 [Example 19, 3-(4-butyl-2-chlorophenylsulfonamido)thiophene-2-carboxylic acid, disodium salt]
100 to 500	O=C(O)c1sccc1NS(=O)(=O)c1ccc2c(c1)CCCC2 [Example 21, 3-(5,6,7,8-tetrahydronaphthalene-2-sulfonamido)thiophene-2-carboxylic acid, disodium salt]
≤ 100	O=C(O)c1sccc1NS(=O)(=O)c1ccc(C(F)(F)F)cc1Br [Example 27, 3-[2-bromo-4-(trifluoromethyl)phenylsulfonamido]thiophene-2-carboxylic acid, disodium salt]
≤ 100	CC(C)(C)c1ccc(S(=O)(=O)Nc2ccsc2C(=O)O)c(F)c1 [Example 29, 3-(4-tert-butyl-2-fluorophenylsulfonamido)thiophene-2-carboxylic acid, disodium salt]
